In PubChem BioAssay AID2060619 (Molecular Pharmacology Branch, DTP, NCI, 2025):

Test system: 323965-272-R-J2-PDC complex spheroid viability
Experiment: Anticancer human tumor 323965-272-R-J2-PDC patient-derived pancreatic carcinoma cell line growth inhibition [CLK]
Details: for IC50: curve of first compound; for viability, T/C: stronger effect = lower value
How it was run: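 Multi-cell-type spheroids combined patient-derived tumor cells with HUVEC endothelial cells and human mesenchymal stem cells. Paired agents were dosed in half-log steps down from about clinical Cmax, or from 10 microM where Cmax was unknown.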

[1] = second compound 0.0316 µM, first compound 0.0316 µM
[2] = second compound 0.0316 µM, first compound 0.1 µM
[3] = second compound 0.0316 µM, first compound 0.316 µM
[4] = second compound 0.0316 µM, first compound 1 µM
[5] = second compound 0.0316 µM, first compound 3.16 µM
[6] = second compound 0.0316 µM, first compound 10 µM
[7] = second compound 0.1 µM, first compound 0.0316 µM
[8] = second compound 0.1 µM, first compound 0.1 µM
[9] = second compound 0.1 µM, first compound 0.316 µM
[10] = second compound 0.1 µM, first compound 1 µM
[11] = second compound 0.1 µM, first compound 3.16 µM
[12] = second compound 0.1 µM, first compound 10 µM
[13] = second compound 0.316 µM, first compound 0.0316 µM
[14] = second compound 0.316 µM, first compound 0.1 µM
[15] = second compound 0.316 µM, first compound 0.316 µM
[16] = second compound 0.316 µM, first compound 1 µM
[17] = second compound 0.316 µM, first compound 3.16 µM
[18] = second compound 0.316 µM, first compound 10 µM
[19] = second compound 1 µM, first compound 0.0316 µM
[20] = second compound 1 µM, first compound 0.1 µM
[21] = second compound 1 µM, first compound 0.316 µM
[22] = second compound 1 µM, first compound 1 µM
[23] = second compound 1 µM, first compound 3.16 µM
[24] = second compound 1 µM, first compound 10 µM
[25] = second compound 3.16 µM, first compound 0.0316 µM
[26] = second compound 3.16 µM, first compound 0.1 µM
[27] = second compound 3.16 µM, first compound 0.316 µM
[28] = second compound 3.16 µM, first compound 1 µM
[29] = second compound 3.16 µM, first compound 3.16 µM
[30] = second compound 3.16 µM, first compound 10 µM
[31] = second compound 10 µM, first compound 0.0316 µM
[32] = second compound 10 µM, first compound 0.1 µM
[33] = second compound 10 µM, first compound 0.316 µM
[34] = second compound 10 µM, first compound 1 µM
[35] = second compound 10 µM, first compound 3.16 µM
[36] = second compound 10 µM, first compound 10 µM
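Also: spheroids exposed to agents for seven days before readout.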
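For viability, T/C in this document: percent of DMSO vehicle control wells so 100% = untreated growth.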

`C=CC(=O)N1CCN(c2nc(=O)n(-c3c(C)ccnc3C(C)C)c3nc(-c4c(O)cccc4F)c(F)cc23)C(C)C1` (stereo unspecified) + CNC(=O)c1ccc(Nc2nc(OC3CCCC3)c3c(-c4ccc5nc(C)oc5c4)c[nH]c3n2)c(OC)c1 was tested, and the IC50 (second compound 0.0316 µM) was greater than 10000 nM, the IC50 (second compound 0.1 µM) was greater than 10000 nM and the IC50 (second compound 0.316 µM) was less than 31.6 nM. For the same compound, the IC50 (second compound 1 µM) was less than 31.6 nM, the IC50 (second compound 3.16 µM) was less than 31.6 nM and the IC50 (second compound 10 µM) was less than 31.6 nM. The viability, T/C [1] was 61.4%, the viability, T/C [2] was 66.7% and the viability, T/C [3] was 66.9%. The viability, T/C [4] was 73.9%, the viability, T/C [5] was 69% and the viability, T/C [6] was 76.4%. The viability, T/C [7] was 66.6%, the viability, T/C [8] was 59.5% and the viability, T/C [9] was 59.1%. For the same compound, the viability, T/C [10] was 55.4%, the viability, T/C [11] was 59.5% and the viability, T/C [12] was 58.7%. It also gave a viability, T/C [13] of 44.8%, a viability, T/C [14] of 41.1% and a viability, T/C [15] of 39.7%. For the same compound, the viability, T/C [16] was 47.8%, the viability, T/C [17] was 45.1% and the viability, T/C [18] was 44.4%. It also gave a viability, T/C [19] of 28.3%, a viability, T/C [20] of 25.1% and a viability, T/C [21] of 24.4%. It also gave a viability, T/C [22] of 27.9%, a viability, T/C [23] of 28.2% and a viability, T/C [24] of 29%. For the same compound, the viability, T/C [25] was 26.9%, the viability, T/C [26] was 25.8% and the viability, T/C [27] was 28.5%. For the same compound, the viability, T/C [28] was 23.9%, the viability, T/C [29] was 26.6% and the viability, T/C [30] was 30.3%. The viability, T/C [31] was 23.2%, the viability, T/C [32] was 21.4% and the viability, T/C [33] was 26.9%. The viability, T/C [34] was 24.4%, the viability, T/C [35] was 27.1% and the viability, T/C [36] was 28.6%.
Work on `CCCS(=O)(=O)Nc1ccc(F)c(C(=O)c2c[nH]c3ncc(-c4ccc(Cl)cc4)cc23)c1F` + CNC(=O)c1ccc(Nc2nc(OC3CCCC3)c3c(-c4ccc5nc(C)oc5c4)c[nH]c3n2)c(OC)c1 yielded an IC50 (second compound 0.0316 µM) greater than 10000 nM, an IC50 (second compound 0.1 µM) greater than 10000 nM and an IC50 (second compound 0.316 µM) greater than 10000 nM. For the same compound, the IC50 (second compound 1 µM) was greater than 10000 nM, the IC50 (second compound 3.16 µM) was less than 31.6 nM and the IC50 (second compound 10 µM) was less than 31.6 nM. It also gave a viability, T/C [1] of 106%, a viability, T/C [2] of 113% and a viability, T/C [3] of 116%. The viability, T/C [4] was 127%, the viability, T/C [5] was 127% and the viability, T/C [6] was 106%. The viability, T/C [7] was 94.3%, the viability, T/C [8] was 88.2% and the viability, T/C [9] was 97.5%. It also gave a viability, T/C [10] of 98.3%, a viability, T/C [11] of 90% and a viability, T/C [12] of 79.9%. For the same compound, the viability, T/C [13] was 72.5%, the viability, T/C [14] was 74.8% and the viability, T/C [15] was 78%. For the same compound, the viability, T/C [16] was 78.8%, the viability, T/C [17] was 88.8% and the viability, T/C [18] was 72%. The viability, T/C [19] was 47.8%, the viability, T/C [20] was 59.6% and the viability, T/C [21] was 64.8%. The viability, T/C [22] was 71%, the viability, T/C [23] was 60.9% and the viability, T/C [24] was 60.2%. The viability, T/C [25] was 47.6%, the viability, T/C [26] was 54.7% and the viability, T/C [27] was 53.6%. It also gave a viability, T/C [28] of 49.2%, a viability, T/C [29] of 61.5% and a viability, T/C [30] of 59.2%. The viability, T/C [31] was 42.5%, the viability, T/C [32] was 50.6% and the viability, T/C [33] was 47.8%. It also gave a viability, T/C [34] of 58.8%, a viability, T/C [35] of 67.2% and a viability, T/C [36] of 61.4%.
`COC1C=CCC(C)C(C)S(=O)(=O)NC(=O)c2ccc3c(c2)N(CC2CCC21)CC1(CCCc2cc(Cl)ccc21)CO3` (stereo unspecified) + CNC(=O)c1ccc(Nc2nc(OC3CCCC3)c3c(-c4ccc5nc(C)oc5c4)c[nH]c3n2)c(OC)c1 showed an IC50 (second compound 0.0316 µM) of 2200 nM, an IC50 (second compound 0.1 µM) of 1370 nM and an IC50 (second compound 0.316 µM) of 580 nM. It also gave an IC50 (second compound 1 µM) of less than 31.6 nM, an IC50 (second compound 3.16 µM) of less than 31.6 nM and an IC50 (second compound 10 µM) of 53.1 nM. For the same compound, the viability, T/C [1] was 106%, the viability, T/C [2] was 119% and the viability, T/C [3] was 85.4%. It also gave a viability, T/C [4] of 68.3%, a viability, T/C [5] of 43.9% and a viability, T/C [6] of 23.2%. It also gave a viability, T/C [7] of 105%, a viability, T/C [8] of 86.5% and a viability, T/C [9] of 68.8%. It also gave a viability, T/C [10] of 57.4%, a viability, T/C [11] of 36.8% and a viability, T/C [12] of 25.1%. It also gave a viability, T/C [13] of 74.1%, a viability, T/C [14] of 62% and a viability, T/C [15] of 56.9%. For the same compound, the viability, T/C [16] was 42.3%, the viability, T/C [17] was 39.1% and the viability, T/C [18] was 21.4%. For the same compound, the viability, T/C [19] was 47.6%, the viability, T/C [20] was 47.8% and the viability, T/C [21] was 39.1%. For the same compound, the viability, T/C [22] was 37.4%, the viability, T/C [23] was 30.7% and the viability, T/C [24] was 21.5%. It also gave a viability, T/C [25] of 46.1%, a viability, T/C [26] of 43.5% and a viability, T/C [27] of 36.7%. The viability, T/C [28] was 29.7%, the viability, T/C [29] was 28.4% and the viability, T/C [30] was 20.7%. The viability, T/C [31] was 54.7%, the viability, T/C [32] was 45.3% and the viability, T/C [33] was 32.8%. For the same compound, the viability, T/C [34] was 29.2%, the viability, T/C [35] was 24.8% and the viability, T/C [36] was 18.1%.
